Test results from PMC10406613, “Endocytic myosin-1 is a force-insensitive, power-generating motor” (The Journal of Cell Biology, 2023).

How the values were obtained:
[1] = molecular target: T1, unphosphorylated Myo5 (actoMyo5) (Saccharomyces cerevisiae, UniProt Q04439); assay: stopped-flow light scattering, ADP release from ADP-saturated actoMyo5 mixed with ATP; type: binding; set-up: motor domain plus both IQ motifs, truncated at Gly763, C-terminal AviTag-TEV-His9 kept; co-expressed with She4 in S. cerevisiae D1074; lambda phosphatase-treated (unphosphorylated at TEDS site S357); Cmd1 light chain in excess; with Calmodulin; Actin, alpha skeletal muscle (rabbit, Oryctolagus cuniculus); settings: ADP dissociation rate constant, 100 µM ADP preincubated with 200 nM actoMyo5, then 2.5 mM ATP, KMg25 buffer pH 7, 20°C
T1 sequence (Q04439 whole entry, looked up, the tested form may be a part): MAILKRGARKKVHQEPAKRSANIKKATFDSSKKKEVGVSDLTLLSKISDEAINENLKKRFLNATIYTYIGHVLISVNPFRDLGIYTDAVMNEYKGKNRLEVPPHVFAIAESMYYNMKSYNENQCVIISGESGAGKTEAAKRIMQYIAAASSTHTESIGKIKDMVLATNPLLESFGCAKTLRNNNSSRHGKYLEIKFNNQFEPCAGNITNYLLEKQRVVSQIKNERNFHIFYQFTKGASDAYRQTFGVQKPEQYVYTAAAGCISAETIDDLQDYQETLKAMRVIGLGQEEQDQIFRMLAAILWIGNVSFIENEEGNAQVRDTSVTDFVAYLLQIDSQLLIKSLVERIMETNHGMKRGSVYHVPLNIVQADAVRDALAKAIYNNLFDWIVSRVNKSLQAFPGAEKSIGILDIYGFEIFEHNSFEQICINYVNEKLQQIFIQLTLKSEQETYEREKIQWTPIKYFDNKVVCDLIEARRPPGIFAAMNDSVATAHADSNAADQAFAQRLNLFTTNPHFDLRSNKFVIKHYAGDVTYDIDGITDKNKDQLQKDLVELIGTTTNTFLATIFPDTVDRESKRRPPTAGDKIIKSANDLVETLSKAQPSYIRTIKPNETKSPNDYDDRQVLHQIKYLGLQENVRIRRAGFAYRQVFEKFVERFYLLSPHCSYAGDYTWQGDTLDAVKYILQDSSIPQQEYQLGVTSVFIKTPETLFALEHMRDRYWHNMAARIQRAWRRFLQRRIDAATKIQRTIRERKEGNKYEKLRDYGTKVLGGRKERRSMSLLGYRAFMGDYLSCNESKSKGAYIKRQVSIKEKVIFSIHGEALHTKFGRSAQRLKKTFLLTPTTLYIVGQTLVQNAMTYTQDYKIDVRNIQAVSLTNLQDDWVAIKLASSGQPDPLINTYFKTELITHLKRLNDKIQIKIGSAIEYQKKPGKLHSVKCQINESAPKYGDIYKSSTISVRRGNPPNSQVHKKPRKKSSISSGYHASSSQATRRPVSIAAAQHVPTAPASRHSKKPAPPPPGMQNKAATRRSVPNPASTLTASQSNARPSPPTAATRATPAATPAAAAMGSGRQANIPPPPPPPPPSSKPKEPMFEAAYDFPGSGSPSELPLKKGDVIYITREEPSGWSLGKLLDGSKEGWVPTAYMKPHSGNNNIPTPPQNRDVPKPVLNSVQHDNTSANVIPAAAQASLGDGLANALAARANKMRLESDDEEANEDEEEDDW
Description: stopped-flow light scattering, ADP release from ADP-saturated actoMyo5 mixed with ATP on unphosphorylated Myo5 (actoMyo5)

[2] = molecular target: T2, phosphorylated Myo5 (actoMyo5) (Saccharomyces cerevisiae, UniProt Q04439); assay: as above; type: binding; set-up: motor domain plus both IQ motifs, truncated at Gly763, C-terminal AviTag-TEV-His9 kept; co-expressed with She4 in S. cerevisiae D1074; phosphorylated at TEDS site S357 by Pak1; Cmd1 light chain in excess; with Calmodulin; Actin, alpha skeletal muscle (rabbit, Oryctolagus cuniculus); settings: 100 µM ADP preincubated with 200 nM actoMyo5, then 2.5 mM ATP, KMg25 buffer pH 7, 20°C, phosphorylated at S357
T2 sequence (Q04439 whole entry, looked up, the tested form may be a part): as above
Description: stopped-flow light scattering, ADP release from ADP-saturated actoMyo5 mixed with ATP on phosphorylated Myo5 (actoMyo5)

[3] = molecular target: T2, phosphorylated Myo5 (actoMyo5); settings: apparent second-order rate constant of ATP binding to nucleotide-free actoMyo5 (actin-bound); MgATP, KMg25 buffer pH 7, 20°C; phosphorylated at S357
Description: stopped-flow light scattering, ATP-induced dissociation of actoMyo5, linear fit on phosphorylated Myo5 (actoMyo5)

[4] = molecular target: T1, unphosphorylated Myo5 (actoMyo5); assay: biochemical
Description: stopped-flow light scattering, ATP-induced dissociation of actoMyo5, hyperbolic fit on unphosphorylated Myo5 (actoMyo5)

| Structure (SMILES) | ADP release rate constant [1] | ADP dissociation rate constant [2] | Phosphorylated Myo5 [3] | Kd [4] |
| --- | --- | --- | --- | --- |
| Nc1ncnc2c1ncn2[C@@H]1O[C@H](COP(=O)(O)OP(=O)(O)O)[C@@H](O)[C@H]1O [ADP] | 107 (±5.9) s^−1 | 74 ± 2.0 s⁻¹ | – | – |
| Nc1ncnc2c1ncn2[C@@H]1O[C@H](COP(=O)(O)OP(=O)(O)OP(=O)(O)O)[C@@H](O)[C@H]1O [ATP] | – | – | 0.39 (±0.017) µM^−1 s^−1 | 167 µM |
